What was measured:
[1] = test system: IICR (IP3 induced calcium release) in CHO cells; test: Assay of IICR (IP3 induced calcium release)-inhibiting action; assay type: cell-based, Chinese hamster; settings: CHO cells, 10 μM ATP; for inhibition at 10 µM / inhibition at 30 µM / inhibition at 100 µM: Cricetulus griseus, CHO, read-out: IICR level (percentage of inhibition)
Method in brief: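 Inhibition (%) of the intracellular calcium increase triggered by 10 μM ATP, measured in CHO cells in BSS with calcium. Compound given 1 min after the buffer exchange and 2 min before ATP; values reported per compound concentration.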

[2] = test system: SOCE (store operated calcium entry) in CHO cells; test: Assay of SOCE (store operated calcium entry)-inhibiting action; assay type: cell-based, Chinese hamster; settings: CHO cells, thapsigargin; for inhibition at 10 µM / inhibition at 30 µM / inhibition at 100 µM: Cricetulus griseus, CHO, read-out: SOCE level (percentage of inhibition)
Method in brief: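 CHO cells in calcium-free BSS received compound, then 1 μM thapsigargin 2 min later to deplete stores; after 9 min, 2 mM calcium chloride (final) added. Percent inhibition of the rise in intracellular calcium determined at various compound concentrations.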

| Compound | inhibition at 10 µM ([1]; test compound 10 μmol) | inhibition at 30 µM ([1]; test compound 30 μmol) | inhibition at 100 µM ([1]; test compound 100 μmol) | inhibition at 10 µM ([2]; test compound 10 μmol) | inhibition at 30 µM ([2]; test compound 30 μmol) | inhibition at 100 µM ([2]; test compound 100 μmol) | IICR level (percentage of inhibition) ([1]; test compound 10 μmol) | IICR level (percentage of inhibition) ([1]; test compound 30 μmol) | IICR level (percentage of inhibition) ([1]; test compound 100 μmol) | SOCE level (percentage of inhibition) ([2]; test compound 10 μmol) | SOCE level (percentage of inhibition) ([2]; test compound 30 μmol) | SOCE level (percentage of inhibition) ([2]; test compound 100 μmol) |
| --- | --- | --- | --- | --- | --- | --- | --- | --- | --- | --- | --- | --- |
| O=C(CCN(CCO)CCO)n1nnc2ccccc21 [Example 296, 2-bis(N-2-hydroxyethyl)aminoethyl-1-benzotriazoketone] | 0% | 50% | 60% | 0% | 0% | 20% | – | – | – | – | – | – |
| CC(C)N(CCC(=O)c1ccc(-c2ccccc2)cc1)Cc1ccccc1 [Example 297, 2-(N-isopropylbenzyl)aminoethyl-4-biphenylketone] | 50% | 50% | 90% | 20% | 50% | 60% | – | – | – | – | – | – |
| CC(C)N(CCO)CCC(=O)c1ccc(-c2ccccc2)cc1 [Example 298, 2-(N-2-hydroxyethylisopropyl)aminoethyl-4-biphenylketone] | 60% | 50% | 60% | 20% | 40% | 50% | – | – | – | – | – | – |
| O=C(CCN(CCO)c1ccccc1)c1ccc(-c2ccccc2)cc1 [Example 299, 2-(N-2-hydroxyethylphenyl)aminoethyl-4-biphenylketone] | 70% | 30% | 30% | 20% | 40% | 40% | – | – | – | – | – | – |
| O=C(CCNCCc1ccccc1)c1ccco1 [Example 300, 2-(N-phenethyl)aminoethyl-2-furylketone] | 30% | 0% | 10% | – | 20% | 40% | – | – | – | – | – | – |
| CCN(CCC(=O)c1ccc(Br)s1)Cc1ccccc1 [Example 301, 2-(N-ethylbenzyl)aminoethyl-5-bromo-2-thienylketone] | 70% | 70% | 90% | 20% | 30% | 40% | – | – | – | – | – | – |
| CC(C)(C)N(CCC(=O)c1ccc(C#N)cc1)Cc1ccccc1 [Example 302, 2-(N-t-butylbenzyl)aminoethyl-4-cyanophenylketone] | – | 90% | – | 0% | 0% | 20% | 60% | – | – | – | – | – |
| Cc1ccc(C(=O)CCN(Cc2ccccc2)C(C)(C)C)cc1 [Example 303, 4-tolyl(N-benzyl-N-t-butyl)aminoethylketone] | 20% | 20% | 40% | 0% | 0% | 0% | – | – | – | – | – | – |
| CC(C)(C)N(CCC(=O)c1ccc(C#N)cc1)Cc1ccccc1 [Example 304, 4-cyanophenyl(N-benzyl-N-t-butyl)aminoethylketone] | – | – | – | – | – | – | 90% | 100% | 20% | 0% | 0% | 10% |
| CC(C)(C)N(CCC(=O)c1ccc(Cl)cc1)Cc1ccccc1 [Example 305, 2-(N-t-butyl-N-benzyl)aminoethyl-4-chlorophenylketone] | 60% | 70% | 50% | 20% | 20% | 60% | – | – | – | – | – | – |
| Cc1ccc(C(=O)CCNCCO)s1 [Example 306, 2-(N-hydroxyethyl)aminoethyl-5-methyl-2-thienylketone] | 50% | 20% | 30% | 10% | 20% | 30% | – | – | – | – | – | – |
| O=C(CCNCCO)c1ccc(Br)s1 [Example 307, 2-(N-hydroxyethyl)aminoethyl-5-bromo-2-thienylketone] | – | – | – | 0% | – | – | 30% | 20% | 30% | – | 10% | 10% |
| CC(C)N(CCC(=O)c1ccc(C#N)cc1)Cc1ccccc1 [Example 308, 2-(N-benzylisopropyl)aminoethyl-4-cyanophenylketone] | 90% | 100% | 95% | 0% | 0% | 10% | – | – | – | – | – | – |
| CC(C)N(CCO)CCC(=O)c1ccc(C#N)cc1 [Example 309, 2-(N-hydroxylethylisopropyl)aminoethyl-4-cyanophenylketone] | 0% | 0% | 20% | 0% | 0% | 10% | – | – | – | – | – | – |
| CC(C)N(CCC(=O)c1ccc(Cl)cc1)Cc1ccccc1 [Example 310, 2-(N-benzylisopropyl)aminoethyl-4-chloro-phenylketone] | 80% | 80% | 70% | 0% | 0% | 10% | – | – | – | – | – | – |
| CC(C)N(CCO)CCC(=O)c1ccc(Cl)cc1 [Example 311, 2-(N-hydroxyethylisopropyl)aminoethyl-4-chloro-phenylketone] | 50% | 30% | 50% | 0% | 0% | 10% | – | – | – | – | – | – |
| CC(C)N(CCO)CCC(=O)c1ccccc1 [Example 312, 2-(N-hydroxyethylisopropyl)aminoethylphenylketone] | 20% | 20% | 80% | 0% | 0% | 10% | – | – | – | – | – | – |
| CCN(CCC(=O)c1ccc(F)cc1)Cc1ccccc1 [Example 313, 2-(N-benzylethyl)aminoethyl-4-fluoro-phenylketone] | 20% | 20% | 30% | 0% | 0% | 30% | – | – | – | – | – | – |
| Cc1ccsc1C(=O)CCN(Cc1ccccc1)C(C)(C)C [Example 314, 2-(N-benzyl-t-butyl)aminoethyl-3-methyl-2-thienylketone] | 70% | 70% | 100% | 0% | 10% | 20% | – | – | – | – | – | – |
| Cc1csc(C(=O)CCN(Cc2ccccc2)C(C)(C)C)c1 [Example 315, 2-(N-benzyl-t-butyl)aminoethyl-4-methyl-2-thienylketone] | 80% | 90% | 100% | 0% | 0% | 30% | – | – | – | – | – | – |
| Cc1ccc(C(=O)CCN(Cc2ccccc2)C(C)(C)C)s1 [Example 316, 2-(N-benzyl-t-butyl)aminoethyl-5-methyl-2-thienylketone] | 70% | 80% | 100% | 0% | 10% | 20% | – | – | – | – | – | – |
| CC(C)(C)N(CCC(=O)c1ccc2c(c1)OCCO2)Cc1ccccc1 [Example 317, 2-(N-benzyl-t-butyl)aminoethyl-5,6-ethylenedioxy-2-phenylketone] | 90% | 95% | 100% | 10% | 10% | 30% | – | – | – | – | – | – |
| Cc1ccc(C(=O)CCN(Cc2ccccc2)C(C)C)s1 [Example 318, 2-(N-benzylisopropyl)aminoethyl-5-methyl-2-thienylketone] | 10% | 60% | 80% | 10% | 20% | 40% | – | – | – | – | – | – |
| CCN(CCC(=O)c1ccc(C)s1)Cc1ccccc1 [Example 319, 2-(N-benzylethyl)aminoethyl-5-methyl-2-thienylketone] | 20% | 10% | 70% | 0% | 10% | 20% | – | – | – | – | – | – |
| O=C(CCN(CCO)CCO)c1ccc(I)s1 [Example 320] | 0% | 0% | 70% | 20% | 40% | 50% | – | – | – | – | – | – |
| Cc1csc(C(=O)CCN(Cc2ccccc2)C(C)C)c1 [Example 321, 2-(N-benzylisopropyl)aminoethyl-4-methyl-2-thienylketone] | 20% | 70% | 100% | 0% | 0% | 0% | – | – | – | – | – | – |
| Cc1csc(C(=O)CCN(Cc2ccccc2)Cc2ccccc2)c1 [Example 322, 2-(N-dibenzyl)aminoethyl-4-methyl-2-thienylketone] | 10% | 20% | 30% | 0% | 10% | 20% | – | – | – | – | – | – |
